Results reported in PMC9764071 (Acta Pharmaceutica Sinica. B, 2022).

What was measured:
A375 cells = assay: Cytotoxicity evaluation by Real-Time Cell Analyzing; assay type: cell-based; conditions: 20 μmol/L of compound; RTCA; versus control group
PD-1/PD-L1 interaction = PD-1/PD-L1 interaction (Homo sapiens, UniProt Q9NZQ7); assay: TR-FRET assay of PD-1/PD-L1 interaction inhibition; assay type: binding
[1] = tested on: CD8, IFN-γ and GzmB expression; assay: Immunohistochemistry; assay type: in vivo, mice; conditions: IHC of tumor tissues; Fig. S8
[2] = target: PD-1/PD-L1 interaction on H460 cells (Homo sapiens, UniProt Q9NZQ7); assay type: cell-based
[3] = target: PD-1/PD-L1 interaction on MDA-MB-231 cells (Homo sapiens, UniProt Q9NZQ7); assay type: cell-based; conditions: P39 0–200 nmol/L, 24 h; immunostaining
Acute toxicity test = assay type: in vivo, ICR mice
H460 cells = assay: PBMCs-mediated tumor cell-killing assay; assay type: cell-based, human; conditions: P39 100 or 200 nmol/L, 24 h
[4] = tested on: Lewis lung carcinoma (LLC) cells overexpressing hPD-L1 (LLC-hPD-L1); assay: In vivo antitumor activity, humanized LLC-hPD-L1 mouse model; parameters: species or system hPD-1-knockin C57BL/6 mice
T cells in TILs = assay: Flow cytometry of tumor infiltrating lymphocytes, MC38 model; assay type: in vivo, C57BL/6 mice
MC38 tumor cells = assay: In vivo antitumor activity, MC38 mouse model; parameters: species or system C57BL/6 mice
[5] = tested on: PD-1/PD-L1 interaction, H358 cells; assay: PD-1/PD-L1 blockade bioassay; assay type: cell-based; conditions: P39-treated H358 cells versus untreated cells; concentration-dependent
[6] = tested on: Lewis lung carcinoma (LLC) cells overexpressing hPD-L1 (LLC-hPD-L1); assay: In vivo antitumor activity on Balb/c-nude mice; conditions: P39 4, 10 and 25 mg/kg

Sequence of PD-1/PD-L1 interaction (Q9NZQ7 19-238 limits assumed): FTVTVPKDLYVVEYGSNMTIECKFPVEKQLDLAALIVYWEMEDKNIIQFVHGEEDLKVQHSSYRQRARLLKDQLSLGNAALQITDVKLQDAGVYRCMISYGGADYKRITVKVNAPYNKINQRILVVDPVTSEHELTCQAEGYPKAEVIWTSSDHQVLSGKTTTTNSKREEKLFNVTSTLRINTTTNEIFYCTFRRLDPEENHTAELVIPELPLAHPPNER
Sequence of PD-1/PD-L1 interaction on H460 cells (Q9NZQ7 19-290): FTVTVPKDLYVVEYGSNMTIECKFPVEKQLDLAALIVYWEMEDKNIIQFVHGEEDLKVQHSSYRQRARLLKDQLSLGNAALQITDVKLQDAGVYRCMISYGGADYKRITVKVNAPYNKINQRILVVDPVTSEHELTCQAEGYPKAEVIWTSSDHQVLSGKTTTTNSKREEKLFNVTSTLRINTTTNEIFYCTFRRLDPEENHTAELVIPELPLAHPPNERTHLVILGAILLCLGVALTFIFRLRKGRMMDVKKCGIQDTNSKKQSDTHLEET
Sequence of PD-1/PD-L1 interaction on MDA-MB-231 cells (Q9NZQ7 19-290): as above

Row | SMILES | IC50 (PD-1/PD-L1 interaction) | other results
1 | Cc1c(-c2ccccc2)cccc1N1C(=O)c2cc(CNCCO)c(OCc3cccc(C#N)c3)cc2C1=O [P1] | 45.4 nM | cytotoxicity, real-time growth of A375 cells (A375 cells): essentially non-toxic to A375 cells
2 | Cc1c(-c2ccccc2)cccc1N1C(=O)c2cc(CNCCO)c(OCc3ccccc3C#N)cc2C1=O [P3] | 171 nM | cytotoxicity, real-time growth of A375 cells (A375 cells): essentially non-toxic to A375 cells
3 | Cc1c(-c2ccccc2)cccc1N1C(=O)c2cc(CNCCO)c(OCc3ccc(C#N)cc3)cc2C1=O [P4] | 153 nM | cytotoxicity, real-time growth of A375 cells (A375 cells): essentially non-toxic to A375 cells
4 | Cc1c(-c2ccccc2)cccc1N1C(=O)c2cc(CNC3CCOCC3)c(OCc3cccc(C#N)c3)cc2C1=O [P7] | 45.6 nM | 
5 | Cc1c(-c2ccccc2)cccc1N1C(=O)c2ccc(OCc3cccc(C#N)c3)c(CNC3CCOCC3)c2C1=O [P9] | 1140 nM | 
6 | Cc1c(-c2ccccc2)cccc1N1C(=O)c2ccc(OCc3cccc(C#N)c3)c(CN3CCC[C@H]3C(=O)O)c2C1=O [P10] | 4380 nM | 
7 | N#Cc1cccc(COc2cc3c(cc2CN2CCCC[C@H]2C(=O)O)C(=O)N(c2cccc(-c4ccccc4)c2C#N)C3=O)c1 [P12] | 100 nM | 
8 | N#Cc1cccc(COc2cc3c(cc2CNC2CCOCC2)C(=O)N(c2cccc(-c4ccccc4)c2Cl)C3=O)c1 [P13] | 39.3 nM | 
9 | N#Cc1cccc(COc2cc3c(cc2CN2CCC[C@H]2C(=O)O)C(=O)N(c2cccc(-c4ccccc4)c2Cl)C3=O)c1 [P14] | 22.1 nM | 
10 | N#Cc1cccc(COc2cc3c(cc2CNC2CCOCC2)C(=O)N(c2cccc(-c4ccccc4)c2F)C3=O)c1 [P15] | 58.7 nM | cytotoxicity, real-time growth of A375 cells (A375 cells): essentially non-toxic to A375 cells
11 | N#Cc1cccc(COc2cc3c(cc2CN2CCC[C@H]2C(=O)O)C(=O)N(c2cccc(-c4ccccc4)c2F)C3=O)c1 [P16] | 31.6 nM | 
12 | CC(=O)NCCNCc1cc2c(cc1OCc1cccc(C#N)c1)C(=O)N(c1cccc(-c3ccccc3)c1C)C2=O [P18] | 79.1 nM | 
13 | Cc1c(-c2ccccc2)cccc1N1C(=O)c2cc(CN(C)CCO)c(OCc3cccc(C#N)c3)cc2C1=O [P19] | 150 nM | 
14 | Cc1c(-c2ccccc2)cccc1N1C(=O)c2cc(CN3CCC[C@H]3CO)c(OCc3cccc(C#N)c3)cc2C1=O [P22] | 251 nM | 
15 | Cc1c(-c2ccccc2)cccc1N1C(=O)c2cc(CN3CCOCC3)c(OCc3cccc(C#N)c3)cc2C1=O [P24] | 738 nM | 
16 | Cc1c(-c2ccccc2)cccc1N1C(=O)c2cc(CN3CC(O)C3)c(OCc3cccc(C#N)c3)cc2C1=O [P25] | 187 nM | 
17 | Cc1c(-c2ccccc2)cccc1N1C(=O)c2cc(CN3CC(C(=O)O)C3)c(OCc3cccc(C#N)c3)cc2C1=O [P27] | 42.4 nM | 
18 | COC(=O)CNCc1cc2c(cc1OCc1cccc(C#N)c1)C(=O)N(c1cccc(-c3ccccc3)c1C)C2=O [P31] | 836 nM | 
19 | Cc1c(-c2ccccc2)cccc1N1C(=O)c2cc(CNCC(=O)O)c(OCc3cccc(C#N)c3)cc2C1=O [P33] | 13.3 nM | cytotoxicity, real-time growth of A375 cells (A375 cells): essentially non-toxic to A375 cells
20 | Cc1c(-c2ccccc2)cccc1N1C(=O)c2cc(CN(C)CC(=O)OC(C)(C)C)c(OCc3cccc(C#N)c3)cc2C1=O [P34] | > 10000 nM | 
21 | Cc1c(-c2ccccc2)cccc1N1C(=O)c2cc(CN(C)CC(=O)O)c(OCc3cccc(C#N)c3)cc2C1=O [P35] | 46.6 nM | 
22 | Cc1c(-c2ccccc2)cccc1N1C(=O)c2cc(CN[C@@H](C)C(=O)OC(C)(C)C)c(OCc3cccc(C#N)c3)cc2C1=O [P36] | 1670 nM | 
23 | Cc1c(-c2ccccc2)cccc1N1C(=O)c2cc(CN[C@@H](C)C(=O)O)c(OCc3cccc(C#N)c3)cc2C1=O [P37] | 11.6 nM | cytotoxicity, real-time growth of A375 cells (A375 cells): essentially non-toxic to A375 cells
24 | Cc1c(-c2ccccc2)cccc1N1C(=O)c2cc(CN[C@H](C(=O)OC(C)(C)C)C(C)O)c(OCc3cccc(C#N)c3)cc2C1=O (some centres unmarked) [P38] | > 10000 nM | 
25 | Cc1c(-c2ccccc2)cccc1N1C(=O)c2cc(CN[C@H](C(=O)O)C(C)O)c(OCc3cccc(C#N)c3)cc2C1=O (some centres unmarked) [P39] | 8.9 nM | expression of CD8, IFN-γ, and GzmB [1]: increased expression; inhibitory activity on PD-1 binding to tumor cells compared to BMS202 ([2]; 200 nmol/L, Fig. 4A and B): stronger inhibitory activity compared to the positive compound BMS202; binding capacity of PD-1 to H460 cells ([2]; P39 0–200 nmol/L, 24 h, flow cytometry and immunostaining): significantly decreased in a dose-dependent manner; binding capacity of PD-1 to MDA-MB-231 cells [3]: significantly decreased in a dose-dependent manner; cytotoxicity, real-time growth of A375 cells (A375 cells): essentially non-toxic to A375 cells; LD50 at 14 days (Acute toxicity test; ICR, mouse, in vivo, po): > 5000 mg/kg; mortality and body weight loss (Acute toxicity test; oral single dose 5000 mg/kg, observed two weeks): no mortality and obvious body weight loss; sensitivity of tumor cells to T cell killing (activated human PBMCs) (H460 cells): greatly increased; tumor inhibitory effect compared with BMS202 (10 mg/kg) ([4]; P39 25 mg/kg): much better activity; tumor inhibition rate ([4]; high dose, 25 mg/kg, 12 days of administration): 79.0%; inhibition rate of tumor growth ([4]; low dose, 10 mg/kg): 66.2%; population of CD4+ T cells in the tumor tissue (T cells in TILs; P39-treated mice versus control group, Fig. S6C): did not change compared to the control group; ratio of CD8+ to CD3+ T cells in the tumor (T cells in TILs; P39-treated mice, Fig. S6B and 6E): greatly increased; tumor volume growth inhibition (MC38 tumor cells; 10 mg/kg i.p. once daily, 4 weeks): 54.9%; tumor volume growth inhibition (MC38 tumor cells; 25 mg/kg i.p. once daily, 4 weeks): 68.3%; final tumor weight (MC38 tumor cells; 10 and 25 mg/kg groups versus control group): significantly decreased; weight loss or death of mice during treatment (MC38 tumor cells; 10 and 25 mg/kg i.p. once daily, 4 weeks): No weight loss or death of mice; transcriptional-mediated bioluminescent signal [5]: significant increase; ability to clear tumor cells in immunodeficient mice [6]: no ability to clear tumor cells
26 | Cc1c(-c2ccccc2)cccc1N1C(=O)c2cc(CN[C@@H](Cc3ccccc3)C(=O)OC(C)(C)C)c(OCc3cccc(C#N)c3)cc2C1=O [P40] | 1690 nM | 

Further lines, with some results ahead:

Row | IC50 (PD-1/PD-L1 interaction) | SMILES | other results
27 | 216 nM | Cc1c(-c2ccccc2)cccc1N1C(=O)c2cc(CNCCO)c(OCc3ccccc3)cc2C1=O [P5] | 
28 | 921 nM | Cc1c(-c2ccccc2)cccc1N1C(=O)c2cc(CNCCO)c(OCc3ccc(C(C)C)cc3)cc2C1=O [P6] | 
29 | 52.1 nM | Cc1c(-c2ccccc2)cccc1N1C(=O)c2cc(CN3CCC[C@H]3C(=O)O)c(OCc3cccc(C#N)c3)cc2C1=O [P8] | cytotoxicity, real-time growth of A375 cells (A375 cells): essentially non-toxic to A375 cells
30 | 117 nM | Cc1c(-c2ccccc2)cccc1N1C(=O)c2cc(CN3CCCC[C@H]3C(=O)O)c(OCc3cccc(C#N)c3)cc2C1=O [P11] | 
31 | 395 nM | Cc1c(-c2ccccc2)cccc1N1C(=O)c2cc(CNCCNC(=O)OC(C)(C)C)c(OCc3cccc(C#N)c3)cc2C1=O [P20] | 
32 | 189 nM | Cc1c(-c2ccccc2)cccc1N1C(=O)c2cc(CNCCN(C)C)c(OCc3cccc(C#N)c3)cc2C1=O [P21] | 
33 | 216 nM | Cc1c(-c2ccccc2)cccc1N1C(=O)c2cc(CN3CC[C@@H](O)C3)c(OCc3cccc(C#N)c3)cc2C1=O [P23] | 
34 | 564 nM | Cc1c(-c2ccccc2)cccc1N1C(=O)c2cc(CN3CCC[C@H]3C(N)=O)c(OCc3cccc(C#N)c3)cc2C1=O [P26] | 
35 | 607 nM | Cc1c(-c2ccccc2)cccc1N1C(=O)c2cc(CN[C@@H](CO)C(=O)OC(C)(C)C)c(OCc3cccc(C#N)c3)cc2C1=O [P29] | 
36 | 14 nM | Cc1c(-c2ccccc2)cccc1N1C(=O)c2cc(CN[C@@H](CO)C(=O)O)c(OCc3cccc(C#N)c3)cc2C1=O [P30] | cytotoxicity, real-time growth of A375 cells (A375 cells): essentially non-toxic to A375 cells
37 | 1160 nM | Cc1c(-c2ccccc2)cccc1N1C(=O)c2cc(CNCC(=O)OC(C)(C)C)c(OCc3cccc(C#N)c3)cc2C1=O [P32] | 
38 | 527 nM | Cc1c(-c2ccccc2)cccc1N1C(=O)c2cc(CN[C@@H](Cc3ccccc3)C(=O)O)c(OCc3cccc(C#N)c3)cc2C1=O [P41] | 
